Data from ChEMBL document CHEMBL1201862, “PubChem BioAssay data set” (2004).
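Values below derive from 48-hour exposures of cells grown in 96-well plates, with endpoints linearly interpolated between the two concentrations bracketing the appropriate inhibition level. GI50 is the concentration that inhibits growth by half.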 Calls of active or inactive are those of the source. No stated cut-off is given here; in the data, active = GI50 up to about 1.1 µM and inactive = higher.

Tests used:
Experiment in all cases: NCI anticancer screen, dose series, 48 h
SW-620 = test system: SW-620
KM12 = test system: KM12
OVCAR-8 = test system: OVCAR-8
NCI-H460 = test system: NCI-H460
SF-268 = test system: SF-268
OVCAR-5 = test system: OVCAR-5
HOP-62 = test system: HOP-62
EKVX = test system: EKVX
M14 = test system: M14
ACHN = test system: ACHN
SK-MEL-28 = test system: SK-MEL-28
NCI-H522 = test system: NCI-H522
RXF 393 = test system: RXF 393
SK-MEL-5 = test system: SK-MEL-5
HCT-116 = test system: HCT-116
OVCAR-3 = test system: OVCAR-3
CAKI-1 = test system: CAKI-1
NCI-H226 = test system: NCI-H226

Measured: GI50

c1ccc(SC(CCCCOC2CCCCO2)Sc2ccccc2)cc1 (centres undefined)
inactive: SW-620 76.4 µM | KM12 > 100 µM | OVCAR-8 87.5 µM | NCI-H460 99.1 µM | SF-268 44.5 µM | OVCAR-5 > 100 µM | HOP-62 > 100 µM | EKVX > 100 µM | M14 > 100 µM | ACHN 59.7 µM | SK-MEL-28 64.3 µM | NCI-H522 18.4 µM | RXF 393 38.8 µM | SK-MEL-5 30.5 µM | HCT-116 47.5 µM | OVCAR-3 56.5 µM | CAKI-1 92.7 µM

COC1OC2COC(c3ccccc3)OC2C(O)C1Br (centres undefined)
inactive: SW-620 > 100 µM | KM12 > 100 µM | OVCAR-8 > 100 µM | NCI-H460 > 100 µM | SF-268 > 100 µM | OVCAR-5 > 100 µM | HOP-62 > 100 µM | M14 > 100 µM | ACHN > 100 µM | SK-MEL-28 > 100 µM | NCI-H522 > 100 µM | RXF 393 > 100 µM | SK-MEL-5 > 100 µM | HCT-116 > 100 µM | OVCAR-3 > 100 µM | CAKI-1 > 100 µM

CC(=O)Nc1ccc(C(=O)N2N=C(C)/C(=C/c3cccc([N+](=O)[O-])c3)C2=O)cc1
inactive: SW-620 > 100 µM | NCI-H226 > 100 µM | KM12 > 100 µM | OVCAR-8 > 100 µM | NCI-H460 > 100 µM | SF-268 > 100 µM | OVCAR-5 > 100 µM | HOP-62 > 100 µM | EKVX > 100 µM | M14 > 100 µM | ACHN > 100 µM | SK-MEL-28 > 100 µM | NCI-H522 > 100 µM | SK-MEL-5 > 100 µM | HCT-116 > 100 µM | OVCAR-3 > 100 µM | CAKI-1 > 100 µM

O=C1CC2Sc3ccccc3N=C2N1c1ccc(Cl)cc1Cl (centres undefined)
inactive: SW-620 46.2 µM | NCI-H226 > 100 µM | KM12 49.8 µM | OVCAR-8 59.3 µM | NCI-H460 > 100 µM | SF-268 40.9 µM | OVCAR-5 > 100 µM | HOP-62 > 100 µM | EKVX > 100 µM | M14 71 µM | ACHN 54.3 µM | SK-MEL-28 93.3 µM | RXF 393 93.5 µM | SK-MEL-5 81.5 µM | HCT-116 38.2 µM | OVCAR-3 > 100 µM

COC1CC2C3/C(=N/Nc4ccc([N+](=O)[O-])cc4[N+](=O)[O-])CCC2(C)C3C1 (centres undefined)
inactive: SW-620 > 10 µM | NCI-H226 > 10 µM | KM12 > 100 µM | OVCAR-8 > 100 µM | NCI-H460 > 100 µM | SF-268 > 100 µM | OVCAR-5 > 10 µM | HOP-62 > 10 µM | M14 > 10 µM | ACHN > 10 µM | SK-MEL-28 > 100 µM | NCI-H522 > 10 µM | SK-MEL-5 > 10 µM | HCT-116 > 100 µM | OVCAR-3 > 10 µM | CAKI-1 > 10 µM

NCCCNC(=O)c1csc(NC(=O)c2csc(NC(=O)CCCN)n2)n1
inactive: NCI-H226 > 100 µM | KM12 > 100 µM | OVCAR-8 > 100 µM | NCI-H460 > 100 µM | SF-268 > 100 µM | OVCAR-5 > 100 µM | HOP-62 > 100 µM | EKVX > 100 µM | M14 > 100 µM | ACHN > 100 µM | SK-MEL-28 > 100 µM | NCI-H522 > 100 µM | SK-MEL-5 > 100 µM | HCT-116 > 100 µM | OVCAR-3 > 100 µM | CAKI-1 > 100 µM

O=C(NC(=O)c1cn(CCN2CCN(C(=O)NCCCCCCNC(=O)N3CCN(CCn4cc(C(=O)NC(=O)OCc5ccccc5)c(=O)[nH]c4=O)CC3)CC2)c(=O)[nH]c1=O)OCc1ccccc1
inactive: SW-620 > 100 µM | OVCAR-8 > 100 µM | NCI-H460 > 100 µM | OVCAR-5 > 100 µM | HOP-62 > 100 µM | EKVX > 100 µM | M14 > 100 µM | ACHN > 100 µM | SK-MEL-28 > 100 µM | RXF 393 > 100 µM | SK-MEL-5 > 100 µM | HCT-116 > 100 µM | OVCAR-3 > 100 µM | CAKI-1 > 100 µM

COC(=O)CC1NC(=O)C1C(C)(OC)OC (centres undefined)
inactive: SW-620 > 100 µM | NCI-H226 > 100 µM | OVCAR-8 > 100 µM | NCI-H460 > 100 µM | SF-268 > 100 µM | HOP-62 > 100 µM | EKVX > 100 µM | M14 > 100 µM | ACHN > 100 µM | SK-MEL-28 > 100 µM | RXF 393 > 100 µM | SK-MEL-5 > 100 µM | HCT-116 > 100 µM | OVCAR-3 > 100 µM

CN1N=C2c3ccccc3CC[C@H]2C1c1cccc(O)c1 (some centres undefined)
inactive: SW-620 > 100 µM | NCI-H226 > 100 µM | KM12 > 100 µM | OVCAR-8 > 100 µM | NCI-H460 81.1 µM | SF-268 > 100 µM | OVCAR-5 > 100 µM | HOP-62 > 100 µM | EKVX > 100 µM | M14 > 100 µM | ACHN > 100 µM | SK-MEL-28 > 100 µM | NCI-H522 > 100 µM | RXF 393 77.4 µM | HCT-116 3.05 µM | OVCAR-3 > 100 µM

C1=CC=C2NCCC/N=C3/C=CC=CC=C3NCCC/N=C\2C=C1
inactive: SW-620 > 100 µM | NCI-H226 > 100 µM | KM12 > 100 µM | OVCAR-8 > 100 µM | NCI-H460 > 100 µM | SF-268 > 100 µM | OVCAR-5 > 100 µM | HOP-62 > 100 µM | EKVX > 100 µM | M14 > 100 µM | ACHN > 100 µM | SK-MEL-28 > 100 µM | SK-MEL-5 > 100 µM | HCT-116 > 100 µM | OVCAR-3 > 100 µM

Cc1cc2c(C)n(Cc3ccccc3Cl)nc2c(C(=O)O)c1C
inactive: SW-620 > 100 µM | NCI-H226 > 100 µM | OVCAR-8 > 100 µM | NCI-H460 > 100 µM | SF-268 > 100 µM | OVCAR-5 > 100 µM | HOP-62 > 100 µM | EKVX > 100 µM | ACHN > 100 µM | SK-MEL-28 > 100 µM | RXF 393 > 100 µM | HCT-116 > 100 µM | OVCAR-3 > 100 µM

O=S(=O)(O)C(F)(F)C(F)(F)C(F)(F)C(F)(F)F
inactive: SW-620 > 100 µM | KM12 > 100 µM | OVCAR-8 > 100 µM | NCI-H460 > 100 µM | SF-268 > 100 µM | OVCAR-5 > 100 µM | HOP-62 > 100 µM | EKVX > 100 µM | M14 > 100 µM | ACHN > 100 µM | RXF 393 > 100 µM | SK-MEL-5 > 100 µM | HCT-116 > 100 µM | OVCAR-3 > 100 µM | CAKI-1 > 100 µM

CCOC(=O)CNC(=O)OCc1ccccc1
inactive: SW-620 > 100 µM | KM12 > 100 µM | OVCAR-8 > 100 µM | NCI-H460 > 100 µM | SF-268 > 100 µM | OVCAR-5 > 100 µM | HOP-62 > 100 µM | M14 > 100 µM | ACHN > 100 µM | SK-MEL-28 > 100 µM | NCI-H522 > 100 µM | HCT-116 > 100 µM | OVCAR-3 > 100 µM | CAKI-1 > 100 µM
